#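 Compound exposure: 48 hours, 5 concentrations, 96-well plates. GI50: concentration for 50% inhibition of growth. TGI: concentration producing complete growth inhibition.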
# System: HS 578T breast
# Experiment: NCI tumour cell line growth inhibition, 48 h
Compound,TGI [µM],GI50 [µM]
Cc1ccc([N+](=O)[O-])c2c(NCCCN(C)C)ccnc12,> 100,
CC(=O)[CH-]C(C)=O.CC(=O)[CH-]C(C)=O.N=CC=N.[Sn+2],10.5,2.66
COc1ccc2c(-c3cc4ccccc4o3)cc(=O)oc2c1,43.6,
CS(=O)(=O)Nc1ccc(-c2ccc3c(NC(=O)C4CC4)n[nH]c3c2)cc1,> 25,24.4
C=C1C(=O)O[C@H]2[C@H]1CC/C(COC(=O)c1cc3cc(OC)ccc3[nH]1)=C\CC[C@@]1(C)O[C@@H]21,11.8,3.09
COCC(=O)OC1CCn2c1nc1c2C(=O)C(C)=C(NC(C)=O)C1=O (centres undefined),16.8,
COc1ccc(C2C(C#N)=C(N)OC3=C2CCCc2ccc(F)cc23)cc1OC (centres undefined),51.5,22
Cc1ncc([N+](=O)[O-])n1CCNC(=O)CCCCn1ccnc1[N+](=O)[O-],> 100,
COC(=O)c1c(O)ccc2[nH]c(C)c(C#N)c12,92.2,31
Nc1ccc(SC23CC4CC(CC(C4)C2)C3)cc1,> 100,
CCOC(=O)[C@@H](C)C[C@H](Cc1ccccc1)NC(=O)c1csc([C@@H](C[C@H](C(C)C)N(C)C(=O)[C@@H](NC(=O)[C@H]2CCCCN2C)C(C)(C)C)OC(C)=O)n1,0.472,< 0.00167

# System: HOP-18 NSCLC
# Experiment: NCI tumour cell line growth inhibition, 48 h
Compound,TGI [µM],GI50 [µM]
CN(C)C(=S)/N=c1\ss/c(=N\S(=O)(=O)c2ccccc2)n1-c1ccccc1,> 100,
N#Cc1c(N)c(C(=O)O)nn(-c2cccc(C(F)(F)F)c2)c1=O,> 100,
CCOC(=O)Cc1nc(/C(C#N)=C/c2ccco2)[nH]c(=O)c1C#N,> 100,
CC1=Nc2c(ccc3c2C(=O)c2ccccc2C3=O)NC(c2ccncc2)C1 (centres undefined),> 100,> 100
CC(=O)[CH-]C(C)=O.CC(=O)[CH-]C(C)=O.N=CC=N.[Sn+2],23.7,11.5
COc1cc(/C=C\c2ccc(O)cc2)cc(OC)c1OC,> 100,
CC1(C)CCc2cc3c(cc2O1)OCCC3=O,> 100,
c1cc[c]([Sn]([S]c2cccc3cccnc23)([c]2ccccc2)[c]2ccccc2)cc1,0.214,0.0784
COc1ccc2c(-c3cc4ccccc4o3)cc(=O)oc2c1,> 100,
CCOc1cccc2nc3cccc(C(=O)NCCN(C)C)c3nc12,> 38.4,
Clc1cc(Cl)c2c(Cl)cc(Cl)c3c2c1N=S=N3,> 100,
CC(=O)OCCOCBr,> 100,
CC(O)CN1C(=O)NC(Cc2ccccc2)C1=O (centres undefined),> 100,
O=C(c1ccccc1)[C@H]1Nc2cnccc2C2c3ccccc3CC21 (some centres undefined),45.6,
COc1ccc(C(=O)C(C(=O)CCC(=O)Nc2cccc(C(F)(F)F)c2)c2ccccc2)cc1 (centres undefined),> 100,
NC1=NC(=O)C(CC(=O)Nc2ccc([N+](=O)[O-])cc2[N+](=O)[O-])S1 (centres undefined),> 100,
COC(=O)/C(=N\NC(=S)NN)C(C(=O)C(=O)Nc1ccccc1C(N)=O)c1nc2ccccc2[nH]c1=O (centres undefined),> 100,
CC1CCCC(C(=O)/C(=C/c2cccc(Cl)c2)C(=O)C(=O)O)C1 (centres undefined),> 100,
CC(=O)c1c(C)n([O-])c2cc(C)c(C)cc2[n+]1=O,> 100,
COCC(=O)OC1CCn2c1nc1c2C(=O)C(C)=C(NC(C)=O)C1=O (centres undefined),57.2,
N#CC(C#N)=Cc1cccc(Oc2ccccc2)c1,42.4,
COc1ccc(/C=C/C(=O)c2sc(-n3nc(-c4ccccc4)cc3-c3ccccc3)nc2C)cc1OC,> 100,
NC(CCSCC(F)F)C(=O)O (centres undefined),> 100,
CC1(C)OC(=O)C=C([O-])O1.CC1(C)OC(=O)C=C([O-])O1.O=c1c(O)c(-c2ccc([O-])cc2[O-])oc2cc(O)cc(O)c12.[Ti+4],> 100,25

# System: PC-3 prostate
# Experiment: NCI tumour cell line growth inhibition, 48 h
Compound,TGI [µM],GI50 [µM]
Cc1ccc([N+](=O)[O-])c2c(NCCCN(C)C)ccnc12,> 100,
CC(=O)[CH-]C(C)=O.CC(=O)[CH-]C(C)=O.N=CC=N.[Sn+2],17.6,5.03
COc1ccc2c(-c3cc4ccccc4o3)cc(=O)oc2c1,> 100,
CS(=O)(=O)Nc1ccc(-c2ccc3c(NC(=O)C4CC4)n[nH]c3c2)cc1,> 25,> 25
C=C1C(=O)O[C@H]2[C@H]1CC/C(COC(=O)c1cc3cc(OC)ccc3[nH]1)=C\CC[C@@]1(C)O[C@@H]21,3.65,1.83
COCC(=O)OC1CCn2c1nc1c2C(=O)C(C)=C(NC(C)=O)C1=O (centres undefined),7.68,3.56
COc1ccc(C2C(C#N)=C(N)OC3=C2CCCc2ccc(F)cc23)cc1OC (centres undefined),38.8,19.5
Cc1ncc([N+](=O)[O-])n1CCNC(=O)CCCCn1ccnc1[N+](=O)[O-],> 100,
COC(=O)c1c(O)ccc2[nH]c(C)c(C#N)c12,> 100,38.7
Nc1ccc(SC23CC4CC(CC(C4)C2)C3)cc1,> 100,
CCOC(=O)[C@@H](C)C[C@H](Cc1ccccc1)NC(=O)c1csc([C@@H](C[C@H](C(C)C)N(C)C(=O)[C@@H](NC(=O)[C@H]2CCCCN2C)C(C)(C)C)OC(C)=O)n1,> 16.7,< 0.00167

# System: DLD-1 colon
# Experiment: NCI tumour cell line growth inhibition, 48 h
Compound,TGI [µM],GI50 [µM]
CN(C)C(=S)/N=c1\ss/c(=N\S(=O)(=O)c2ccccc2)n1-c1ccccc1,> 100,
N#Cc1c(N)c(C(=O)O)nn(-c2cccc(C(F)(F)F)c2)c1=O,> 100,
CCOC(=O)Cc1nc(/C(C#N)=C/c2ccco2)[nH]c(=O)c1C#N,> 100,
CC1=Nc2c(ccc3c2C(=O)c2ccccc2C3=O)NC(c2ccncc2)C1 (centres undefined),> 100,
CC(=O)[CH-]C(C)=O.CC(=O)[CH-]C(C)=O.N=CC=N.[Sn+2],3.26,1.71
COc1cc(/C=C\c2ccc(O)cc2)cc(OC)c1OC,> 100,
C=C(COC(C)=O)CC(/C=C(\C)CCC=C(C)C)OC(C)=O (centres undefined),> 100,
CC1(C)CCc2cc3c(cc2O1)OCCC3=O,> 100,
Oc1c2c(c(O)c3ccccc13)=N[C@@H](c1ccccc1)[C@H](c1ccccc1)N=2,> 100,
c1cc[c]([Sn]([S]c2cccc3cccnc23)([c]2ccccc2)[c]2ccccc2)cc1,0.101,0.0321
COc1ccc2c(-c3cc4ccccc4o3)cc(=O)oc2c1,> 100,
CCOc1cccc2nc3cccc(C(=O)NCCN(C)C)c3nc12,7.66,
Cc1cc(C)nc(NS(=O)(=O)c2ccc(Nc3c4ccccc4nc4c(C(=O)N5CCN(CCOS(C)(=O)=O)CC5)ccc(Cl)c34)cc2)n1,> 100,
Clc1cc(Cl)c2c(Cl)cc(Cl)c3c2c1N=S=N3,> 100,

# — PubChem BioAssay (NCI)
